Results published in US8026219B2, “Antimicrobial linear peptides” (Universitat de Girona, priority 2006, dated 2011).
Starred links: 1 amine or outer side, 2 acyl side, 3 side chain; linkers in the order of their positions; H or OH if unused. Non-standard residues stand in square brackets, D forms with d. Residues, ends and D or L forms follow the SMILES beside them. No end group written: not given here. *: point of attachment. X1 = O=C([C@H](Cc1c[nH]c2ccccc12)N(Cc1ccccc1)[*:1])[*:2]; Tos = Cc1ccc(S(=O)(=O)*)cc1

What was measured:
Proteinase K = Proteinase K (Parengyodontium album, UniProt P06873); assay: in vitro; conditions: Proteinase K (1 μg/ml), pH 7.6
Proteinase K, sequence (P06873 106-384): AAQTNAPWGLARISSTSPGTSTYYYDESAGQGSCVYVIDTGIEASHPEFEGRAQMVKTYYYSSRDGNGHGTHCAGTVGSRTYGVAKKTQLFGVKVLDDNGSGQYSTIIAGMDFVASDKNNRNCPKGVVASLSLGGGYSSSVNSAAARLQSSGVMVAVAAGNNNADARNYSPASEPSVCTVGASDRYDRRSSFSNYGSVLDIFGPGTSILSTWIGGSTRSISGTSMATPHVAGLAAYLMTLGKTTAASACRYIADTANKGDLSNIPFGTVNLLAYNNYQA
Method: The degradation is expressed as the percentage of peptide degraded after a determined time interval calculated from the decrease in the area of the peak of the native peptide by HPLC.
The stability of the peptides of the invention to degradation by proteases is determined by a peptide digestion test by Proteinase K (Sigma-Aldrich Corporation, Madrid, Spain).
A solution of 50 μg/ml of the peptide and 1 μg/ml of Proteinase K in 100 mM TRIS buffer at pH 7.6 was used, at ambient temperature.
The progress of the peptide excision was determined chromatographically at times between 5 and 45 minutes. To do this a reverse phase C18 column was used (Kromasil, 4.6×40 mm; 3.5 μm particle size), and linear gradients from 0.98:0.02 to 0:1 during 7 min performing the detection by absorbance in ultraviolet light at 220 nm.

[1] = test system: Xanthomonas vesicatori 2133-2; assay: Minimum inhibitory concentration (MIC), microbial growth by optical density; conditions: 48 h incubation at 25° C., TSB medium
Method: All the bacteria were stored at a temperature of −80° C. in Luria-Bertani (LB) medium supplemented with 20% glycerine in volume/volume.
In all cases they were resuspended in sterile water to obtain a suspension adjusted to an absorbance of 0.2 to 60 nm, which approximately corresponds to 10^8 colony forming units.
To determine the minimum inhibitory concentration (MIC), the peptides were solubilized in milli-Q sterile water until a final concentration of 1000 μM and they were filtered through a 0.22 μm pore size filter.
Dilutions of the peptides of the invention were made to obtained solutions at the concentrations of 750, 500, 250, 200, 150, 125, 100, 75, 50 and 25 μM.
20 μl of each dilution were mixed with 20 μl of the suspension of the corresponding bacterial indicator, and 160 μl of the TSB (Trypticase Soy Broth) liquid medium until a total volume of 200 μl in each well of a microplate.
Two replicas were carried out for each strain, concentration and peptide under study.
The positive controls contained water instead of peptide, and the negative controls contained the peptides without the bacterial suspension.
The microbial growth was determined automatically by optical density at 600 nm using the Microbiology Analyser Bioscreen C (Labsystems)
The microplates were incubated at 25° C. for 48 hours with stirring for 20 seconds before measuring the absorbance every hour. Each experiment was performed twice.

[2] = test system: erythrocytes from fresh human blood; conditions: 5% erythrocytes, 1 h at 37° C., relative to 200 μM melittin; for % Haemolysis 50 μM: 50 μM peptide; for % Haemolysis 150 μM: 150 μM peptide; for % Haemolysis 250 μM: 250 μM peptide
Method: A description of the methodology used to determine the haemolytic activity is found in Oren et al, Biochemistry, 2000, 39, 6103-6114, and in Raguse et al., J. Am. Chem. Soc., 2002, 124, 12774-12785.
The haemolytic activity of the peptides of the invention was evaluated by determining the release of haemoglobin which is produced on placing in contact a solution of the peptides with a suspension of erythrocytes 5% by volume, from fresh human blood.
The blood was collected aseptically using a Vactainer® K2E system (Belliver, Great Britain) with EDTA and it was stored at 4° C. for a period lower than 2 hours.
The blood was centrifuged at 6000 g for 5 minutes to separate the erythrocytes. There were washed three times with TRIS buffer (10 mM TRIS, 150 mM NaCl, pH 7.2) and they were resuspended in TRIS buffer until obtaining a suspension which contained 10% by volume of erythrocytes.
The peptides were solubilized in TRIS buffer until a final concentration of 100, 300 and 500 μM
The replicas were used for each peptide and concentration.
65 μl of 10% erythrocyte suspension was mixed with 65 μl of the peptide solution in each well of a 96-well plate (Micro-Amp®, Applied Biosystems, USA) (5% by volume of erythrocytes) and the mixture was incubated for 1 h at 37° C. under stirring. In this way, the erythrocyte suspensions were subjected to peptide concentrations of 50, 150 and 250 μM.
Next, the plates were centrifuged at 3500 g during 10 minutes and aliquots were transferred of 80 μl of supernatant to microplates with 100 wells (Bioscreen), which were diluted with 80 μl of milli-Q water.
The degree of haemolysis was determined from the absorbance at 540 nm with a Bioscreen plate reader.
The complete positive haemolysis control was determined in a TRIS buffer solution which contained 200 μM melittin (Sigma-Aldrich, Spain)
The percentage of haemolysis (H) was determined using the following equation: H=100×[Op−Ob)/(Om−Ob)]
Where OP as the optical density measured for a determined peptide concentration, Ob was the optical density of the buffer solution, and Om was the optical density for the positive control with melittin.

[3] = test system: Erwinia amylovora PMV6076; assay: Minimum inhibitory concentration (MIC), microbial growth by optical density; assay type: cell-based; conditions: 48 h incubation at 25° C., TSB medium
Method: (§1) Each experiment was performed twice.

[4] = test system: Pseudomonas syringae EPS94; assay: as above; assay type: cell-based; conditions: 48 h incubation at 25° C., TSB medium
Method: as §1

Row | Compound | metabolised at 0.75 h, 50 μg/ml (Proteinase K) | range of concentrations including the MIC, X. vesicatoria [1] | % Haemolysis 50 μM [2] | % Haemolysis 150 μM [2] | % Haemolysis 250 μM [2] | range of concentrations including the MIC, E. amylovora [3] | range of concentrations including the MIC, P. syringae [4]
1 | CC[C@H](C)[C@H](NC(=O)[C@H](CCCCN)NC(=O)[C@H](CCCCN)NC(=O)[C@H](Cc1ccccc1)NC(=O)[C@H](CC(C)C)NC(=O)[C@H](CCCCN)NC(=O)[C@H](Cc1c[nH]c2ccccc12)NS(=O)(=O)c1ccc(C)cc1)C(=O)N[C@@H](CC(C)C)C(=O)N[C@@H](CCCCN)C(=O)N[C@H](C(=O)N[C@@H](CC(C)C)C(N)=O)C(C)C [BP009] (Tos-WKLFKKILKVL-NH2) | 100% |  |  |  |  |  | 
2 | CC[C@H](C)[C@H](NC(=O)[C@H](CCCCN)NC(=O)[C@H](CCCCN)NC(=O)[C@H](Cc1ccccc1)NC(=O)[C@H](CC(C)C)NC(=O)[C@H](CCCCN)NC(=O)[C@@H](N)CCCCN)C(=O)N[C@@H](CC(C)C)C(=O)N[C@@H](CCCCN)C(=O)N[C@@H](Cc1c[nH]c2ccccc12)C(=O)N[C@@H](CC(C)C)C(N)=O [BP052] |  | 2.5 to 5 µM | 51% | 84% | 79% | 2.5 to 5 µM | 5 µM
3 | CC[C@H](C)[C@H](NC(=O)[C@H](CCCCN)NC(=O)[C@H](CCCCN)NC(=O)[C@H](Cc1ccccc1)NC(=O)[C@H](CC(C)C)NC(=O)[C@H](CCCCN)NC(=O)[C@H](Cc1ccc(O)cc1)NS(=O)(=O)c1ccc(C)cc1)C(=O)N[C@@H](CC(C)C)C(=O)N[C@@H](CCCCN)C(=O)N[C@@H](Cc1ccc(O)cc1)C(=O)N[C@@H](CC(C)C)C(N)=O [BP097] |  | <2.5 µM | 83% | 81% | 88% | >7.5 µM | >7.5 µM
4 | Ac-WKLFKKILKVL-NH2 [BP008] | 100% |  |  |  |  |  | 
5 | CC[C@H](C)[C@H](NC(=O)[C@H](CCCCN)NC(=O)[C@H](CCCCN)NC(=O)[C@H](Cc1ccccc1)NC(=O)[C@H](CC(C)C)NC(=O)[C@H](CCCCN)NC(=O)[C@H](CCCCN)NS(=O)(=O)c1ccc(C)cc1)C(=O)N[C@@H](CC(C)C)C(=O)N[C@@H](CCCCN)C(=O)N[C@@H](Cc1ccccc1)C(=O)N[C@@H](CC(C)C)C(N)=O [BP078] |  | <2.5 µM | 40% | 85% | 95% | 5 to 7.5 µM | 5 to 7.5 µM
6 | CC[C@H](C)[C@H](NC(=O)[C@H](CCCCN)NC(=O)[C@H](CCCCN)NC(=O)[C@H](Cc1ccccc1)NC(=O)[C@H](CC(C)C)NC(=O)[C@H](CCCCN)NC(=O)[C@@H](N)Cc1ccccc1)C(=O)N[C@@H](CC(C)C)C(=O)N[C@@H](CCCCN)C(=O)N[C@@H](Cc1ccc(O)cc1)C(=O)N[C@@H](CC(C)C)C(N)=O [BP090] |  | 2.5 to 5 µM | 11% | 57% | 84% | 5 to 7.5 µM | 5 to 7.5 µM
7 | CC[C@H](C)[C@H](NC(=O)[C@H](CCCCN)NC(=O)[C@H](CCCCN)NC(=O)[C@H](Cc1ccccc1)NC(=O)[C@H](CC(C)C)NC(=O)[C@H](CCCCN)NC(=O)[C@H](CCCCN)NC(C)=O)C(=O)N[C@@H](CC(C)C)C(=O)N[C@@H](CCCCN)C(=O)N[C@@H](Cc1c[nH]c2ccccc12)C(=O)N[C@@H](CC(C)C)C(N)=O [BP053] |  | 2.5 to 5 µM | 60% | 82% | 85% | >7.5 µM | 5 to 7.5 µM
8 | LKLFKKILKFL-NH2 [BP081] |  | <2.5 µM | 10% | 65% | 88% | 2.5 to 5 µM | 2.5 to 5 µM
9 | CC[C@H](C)[C@H](NC(=O)[C@H](CCCCN)NC(=O)[C@H](CCCCN)NC(=O)[C@H](Cc1ccccc1)NC(=O)[C@H](CC(C)C)NC(=O)[C@H](CCCCN)NC(=O)[C@H](CCCCN)NC(C)=O)C(=O)N[C@@H](CC(C)C)C(=O)N[C@@H](CCCCN)C(=O)N[C@@H](Cc1ccc(O)cc1)C(=O)N[C@@H](CC(C)C)C(N)=O [BP101] |  | 2.5 µM | 4% | 31% | 62% | >7.5 µM | 5 to 7.5 µM
10 | CC[C@H](C)[C@H](NC(=O)[C@H](CCCCN)NC(=O)[C@H](CCCCN)NC(=O)[C@H](Cc1ccccc1)NC(=O)[C@H](CC(C)C)NC(=O)[C@H](CCCCN)NC(=O)[C@@H](N)Cc1ccc(O)cc1)C(=O)N[C@@H](CC(C)C)C(=O)N[C@@H](CCCCN)C(=O)N[C@@H](Cc1ccc(O)cc1)C(=O)N[C@@H](CC(C)C)C(N)=O [BP095] |  | 2.5 to 5 µM | 7% | 50% | 76% | 5 to 7.5 µM | 5 to 7.5 µM
11 | CC[C@H](C)[C@H](NC(=O)[C@H](CCCCN)NC(=O)[C@H](CCCCN)NC(=O)[C@H](Cc1ccccc1)NC(=O)[C@H](CC(C)C)NC(=O)[C@H](CCCCN)NC(=O)[C@H](CCCCN)NS(=O)(=O)c1ccc(C)cc1)C(=O)N[C@@H](CC(C)C)C(=O)N[C@@H](CCCCN)C(=O)N[C@H](C(=O)N[C@@H](CC(C)C)C(N)=O)C(C)C [BP030] |  | 5 to 7.5 µM | 25% | 70% | 80% | 5 to 7.5 µM | 5 to 7.5 µM
12 | YKLFKKILKWL-NH2 [BP047] |  | 2.5 to 5 µM | 81% | 76% | 82% | 5 to 7.5 µM | 5 to 7.5 µM
13 | CC[C@H](C)[C@H](NC(=O)[C@H](CCCCN)NC(=O)[C@H](CCCCN)NC(=O)[C@H](Cc1ccccc1)NC(=O)[C@H](CC(C)C)NC(=O)[C@H](CCCCN)NC(=O)[C@@H](N)CC(C)C)C(=O)N[C@@H](CC(C)C)C(=O)N[C@@H](CCCCN)C(=O)N[C@@H](Cc1ccc(O)cc1)C(=O)N[C@@H](CC(C)C)C(N)=O [BP105] |  | 2.5 to 5 µM | 14% | 91% | 90% | 5 µM | 5 to 7.5 µM
14 | CC[C@H](C)[C@H](NC(=O)[C@H](CCCCN)NC(=O)[C@H](CCCCN)NC(=O)[C@H](Cc1ccccc1)NC(=O)[C@H](CC(C)C)NC(=O)[C@H](CCCCN)NC(=O)[C@H](Cc1c[nH]c2ccccc12)NCc1ccccc1)C(=O)N[C@@H](CC(C)C)C(=O)N[C@@H](CCCCN)C(=O)N[C@H](C(=O)N[C@@H](CC(C)C)C(N)=O)C(C)C [BP011] (H-[X1]KLFKKILKVL-NH2) |  | 2.5 to 5 µM | 81% | 96% | 100% | 5 to 7.5 µM | 5 to 7.5 µM
15 | CC[C@H](C)[C@H](NC(=O)[C@H](CCCCN)NC(=O)[C@H](CCCCN)NC(=O)[C@H](Cc1ccccc1)NC(=O)[C@H](CC(C)C)NC(=O)[C@H](CCCCN)NC(=O)[C@H](CCCCN)NC(=O)c1ccccc1)C(=O)N[C@@H](CC(C)C)C(=O)N[C@@H](CCCCN)C(=O)N[C@H](C(=O)N[C@@H](CC(C)C)C(N)=O)C(C)C [BP031] |  | <2.5 µM | 34% | 71% | 76% | 2.5 to 5 µM | 5 to 7.5 µM
